Numbers after ± are expanded uncertainties.
Experiments:
[1] = 93.2 kPa, Liquid, Vibrating tube method
[2] = xn = mol fraction of the nth substance listed; settings: 93.2 kPa, Liquid, Vibrating tube method, x1 = 1

Compound `CCCCN` [1-butanamine] has a mass density ([1]; 293.15 K) of 737.12 ± 2 kg/m3, a mass density ([1]; 298.15 K) of 732.33 ± 2 kg/m3 and a mass density ([1]; 303.15 K) of 727.51 ± 2 kg/m3. For the same compound, the mass density ([1]; 308.15 K) was 722.66 ± 2 kg/m3.
In the case of `CC(C)(C)N` [2-methyl-2-propanamine], the mass density ([1]; 293.15 K) is reported as 692.06 ± 2 kg/m3, the mass density ([1]; 298.15 K) is reported as 686.65 ± 2 kg/m3 and the mass density ([1]; 303.15 K) is reported as 681.18 ± 2 kg/m3. The mass density ([1]; 308.15 K) was 675.66 ± 2 kg/m3.
Work on `CC#N` [acetonitrile] yielded a mass density ([1]; 293.15 K) of 782.01 ± 2 kg/m3, a mass density ([1]; 298.15 K) of 776.61 ± 2 kg/m3 and a mass density ([1]; 303.15 K) of 771.2 ± 2 kg/m3. For the same compound, the mass density ([1]; 308.15 K) was 765.75 ± 2 kg/m3.
With `CC#N` [acetonitrile] + CC(C)(C)N the mass density ([2]; 293.15 K) was 782.01 ± 2 kg/m3, the mass density ([2]; 298.15 K) was 776.61 ± 2 kg/m3 and the mass density ([2]; 303.15 K) was 771.2 ± 2 kg/m3. For the same compound, the mass density ([2]; 308.15 K) was 765.75 ± 2 kg/m3.
`CC#N` [acetonitrile] + CCCCN showed a mass density ([2]; 293.15 K) of 782.01 ± 2 kg/m3, a mass density ([2]; 298.15 K) of 776.61 ± 2 kg/m3 and a mass density ([2]; 303.15 K) of 771.2 ± 2 kg/m3. It also gave a mass density ([2]; 308.15 K) of 765.75 ± 2 kg/m3.
In the case of `CC#N` [acetonitrile] + CCCCNCCCC, the mass density ([2]; 293.15 K) is reported as 782.01 ± 2 kg/m3, the mass density ([2]; 298.15 K) is reported as 776.61 ± 2 kg/m3 and the mass density ([2]; 303.15 K) is reported as 771.2 ± 2 kg/m3. The mass density ([2]; 308.15 K) was 765.75 ± 2 kg/m3.
`CC#N` [acetonitrile] + CCCN showed a mass density ([2]; 293.15 K) of 782.01 ± 2 kg/m3, a mass density ([2]; 298.15 K) of 776.61 ± 2 kg/m3 and a mass density ([2]; 303.15 K) of 771.2 ± 2 kg/m3. For the same compound, the mass density ([2]; 308.15 K) was 765.75 ± 2 kg/m3.
Work on `CC#N` [acetonitrile] + CCCNCCC yielded a mass density ([2]; 293.15 K) of 782.01 ± 2 kg/m3, a mass density ([2]; 298.15 K) of 776.61 ± 2 kg/m3 and a mass density ([2]; 303.15 K) of 771.2 ± 2 kg/m3. The mass density ([2]; 308.15 K) was 765.75 ± 2 kg/m3.
For `CC#N` [acetonitrile] + CCN(CC)CC, the mass density ([2]; 293.15 K) was 782.01 ± 2 kg/m3, the mass density ([2]; 298.15 K) was 776.61 ± 2 kg/m3 and the mass density ([2]; 303.15 K) was 771.2 ± 2 kg/m3. The mass density ([2]; 308.15 K) was 765.75 ± 2 kg/m3.
`CCCCNCCCC` [dibutylamine] gave a mass density ([1]; 293.15 K) of 759.7 ± 2 kg/m3, a mass density ([1]; 298.15 K) of 755.61 ± 2 kg/m3 and a mass density ([1]; 303.15 K) of 751.5 ± 2 kg/m3. For the same compound, the mass density ([1]; 308.15 K) was 747.38 ± 2 kg/m3.
`CCCNCCC` [dipropylamine] showed a mass density ([1]; 293.15 K) of 738.18 ± 2 kg/m3, a mass density ([1]; 298.15 K) of 733.64 ± 2 kg/m3 and a mass density ([1]; 303.15 K) of 729.07 ± 2 kg/m3. The mass density ([1]; 308.15 K) was 724.48 ± 2 kg/m3.
With `CCCN` [propan-1-amine] the mass density ([1]; 293.15 K) was 716.48 ± 2 kg/m3, the mass density ([1]; 298.15 K) was 711.21 ± 2 kg/m3 and the mass density ([1]; 303.15 K) was 705.88 ± 2 kg/m3. The mass density ([1]; 308.15 K) was 700.62 ± 2 kg/m3.
`CCN(CC)CC` [triethylamine] gave a mass density ([1]; 293.15 K) of 727.7 ± 2 kg/m3, a mass density ([1]; 298.15 K) of 723.02 ± 2 kg/m3 and a mass density ([1]; 303.15 K) of 718.36 ± 2 kg/m3. For the same compound, the mass density ([1]; 308.15 K) was 713.65 ± 2 kg/m3.

From the NIST ThermoML archive (doi:10.1016/j.jct.2015.09.002)
